Data set [1] can be described thus: Diuretic action after oral administration (excretion of electrolyte and of water). It counts as in vivo, dog (male beagles). The following applies: for Excretion of electrolyte: Na^+ / Na^+/K^+ quotient / Excretion of water: H2 O / Excretion of electrolyte: K^+ / Excretion of electrolyte: Cl^- / times more active than Furosemid / Na^+ excretion between the 2nd and 6th hours after administration: dog, oral; for Excretion of electrolyte: Na^+: dose mg/kg: 9 0.464, 15 0.215, 114 0.1, 116 0.1, 120 0.215, Furosemid 1.0; for Na^+/K^+ quotient: control 1.0; for times more active than Furosemid: by doses giving Na^+ and H2 O excretion similar to Furosemid; for Na^+ excretion between the 2nd and 6th hours after administration / diuretic action: in words. On the procedure: The diuretic action was determined on male beagles weighing from 10 to 15 kg.
The animals are kept without food for 18 hours before starting the experiment. 2 hours before administration of the test substance, they are given 20 ml/kg of water orally. The test substances are administered orally as a tragacanth suspension. Thereafter, 4 ml/kg of water are administered 6 times at intervals of 1 hour.
Urine samples are taken by catheterization at intervals of 2 hours, over a period of 6 hours. […]

The nature of another data set: in vivo. The settings on record: mouse, po. The method, then:
To determine the acute toxicity, the substances are administered orally to groups of 10 female mice of the NMRI strain, weighing from 20 to 23 g. The mean lethal dose (LD 50) is determined after a period of observation of 72 hours.

[2] abbreviates: 2 hours, doses as E1, control 9,3.
The mark [3] stands for this setting: 2 hours, doses as E1, control 67.
[4] abbreviates: 2 hours, doses as E1, control 81.
[5] abbreviates: 6 hours, doses as E6, control 27.
Where [6] appears, read: 6 hours, doses as E6, control 184.
[7] abbreviates: 6 hours, doses as E6, control 238.

With `O=C(O)c1cc(NCc2ccccc2)c(Oc2ccccc2)c(S(=O)(=O)n2cccc2)c1` [Example 9], the “Excretion of electrolyte: Na^+” value is 1,520 μval/kg in data set [1] (2 hours, control 66) and 2930 µval/kg in data set [1] (6 hours, control 212). Moreover, in data set [1] (2 hours, doses as E1), the “Na^+/K^+ quotient” value is 5.1. Moreover, the results for the “Excretion of water: H2 O” value in data set [1] (setting [2]) and in data set [1] (setting [5]) were 27 mL/kg and 56 mL/kg, respectively. The “Excretion of electrolyte: K^+” value in data set [1] (setting [3]) is given as 298 μval/kg; in data set [1] (setting [6]), 810 μval/kg. Moreover, the entries for the “Excretion of electrolyte: Cl^-” value in data set [1] (setting [4]) and in data set [1] (setting [7]) were 1,940 μval/kg and 4,200 μval/kg, respectively. Further, in data set [1], the “times more active than Furosemid” value was 2.2 times. Also, the “Na^+ excretion between the 2nd and 6th hours after administration” value in data set [1] was “a distinct further increase in excretion”. Further, the diuretic action entry in data set [1] is given as “not only better action, but also longer-lasting action, than Furosemid”. Moreover, the median lethal dose (LD50) – broadly, the dose expected to kill half of the subjects tested – at 72 h in the data set “in vivo” worked out at 957 mg/kg. Further, in “in vivo”, the selectivity ratio came to 2060.
As to `O=C(O)c1cc(NCc2ccsc2)c(Oc2ccccc2)c(S(=O)(=O)n2cccc2)c1` [Example 15], the “Excretion of electrolyte: Na^+” value in data set [1] (2 hours, control 66) is reported as 1,240 μval/kg; in data set [1] (6 hours, control 212), 1,940 μval/kg. In addition, the “Na^+/K^+ quotient” value in data set [1] (2 hours, doses as E1) was determined as 3.7. Further, the “Excretion of water: H2 O” value in data set [1] (setting [2]) was found to be 23 mL/kg; in data set [1] (setting [5]), 45 mL/kg. In addition, the figures for the “Excretion of electrolyte: K^+” value in data set [1] (setting [3]) and in data set [1] (setting [6]) were 333 μval/kg and 642 μval/kg, respectively. In addition, the “Excretion of electrolyte: Cl^-” value in data set [1] (setting [4]) was 1,520 μval/kg; in data set [1] (setting [7]), 2,440 μval/kg. For the same molecule, the “Na^+ excretion between the 2nd and 6th hours after administration” value in data set [1] is listed as “a distinct further increase in excretion”. The diuretic action result in data set [1] is “not only better action, but also longer-lasting action, than Furosemid”. Besides, the LD50 at 72 h in the data set “in vivo” worked out at 1470 mg/kg. The selectivity ratio in “in vivo” was 6840.
With `CCc1ccc(CC)n1S(=O)(=O)c1cc(C(=O)O)cc(NCc2ccsc2)c1Oc1ccccc1` [Example 114], the Excretion of electrolyte: Na^+ is 1410 µval/kg in data set [1] (2 hours, control 66) and 1,640 μval/kg in data set [1] (6 hours, control 212). Moreover, the “Na^+/K^+ quotient” value in data set [1] (2 hours, doses as E1) is 4.8. Also, the “Excretion of water: H2 O” value in data set [1] (setting [2]) was 26 mL/kg; in data set [1] (setting [5]), 42 mL/kg. For the same molecule, the “Excretion of electrolyte: K^+” value was found to be 295 μval/kg in data set [1] (setting [3]) and 442 μval/kg in data set [1] (setting [6]). The “Excretion of electrolyte: Cl^-” value was 1,780 μval/kg in data set [1] (setting [4]) and 2,080 μval/kg in data set [1] (setting [7]). The “times more active than Furosemid” value in data set [1] is reported as 10 times. Further, the LD50 at 72 h in the data set “in vivo” was over 2150 mg/kg. The selectivity ratio in “in vivo” was over 21500.
Consider `CCc1ccc(C)n1S(=O)(=O)c1cc(C(=O)O)cc(NCc2ccsc2)c1Oc1ccccc1` [Example 116], for which the “Excretion of electrolyte: Na^+” value is 1,150 μval/kg in data set [1] (2 hours, control 66) and 1,560 μval/kg in data set [1] (6 hours, control 212). Moreover, the “Na^+/K^+ quotient” value in data set [1] (2 hours, doses as E1) is 4.2. Also, the entries for the “Excretion of water: H2 O” value in data set [1] (setting [2]) and in data set [1] (setting [5]) were 22 mL/kg and 40 mL/kg, respectively. In addition, the “Excretion of electrolyte: K^+” value was found to be 271 μval/kg in data set [1] (setting [3]) and 473 μval/kg in data set [1] (setting [6]). Moreover, the “Excretion of electrolyte: Cl^-” value in data set [1] (setting [4]) is 1,510 μval/kg; in data set [1] (setting [7]), 2,100 μval/kg. In data set [1], the “times more active than Furosemid” value came out at 10 times. The LD50 at 72 h in “in vivo” is over 2150 mg/kg. In addition, in “in vivo”, the selectivity ratio is over 21500.
In the case of `Cc1ccc(C)n1S(=O)(=O)c1cc(C(=O)O)cc(NCc2ccsc2)c1Nc1ccccc1` [Example 120], the Excretion of electrolyte: Na^+ in data set [1] (2 hours, control 66) is 1260 µval/kg; in data set [1] (6 hours, control 212) it was 2,050 μval/kg. In data set [1] (2 hours, doses as E1), the “Na^+/K^+ quotient” value came to 5.6. In addition, the “Excretion of water: H2 O” value in data set [1] (setting [2]) is 19 mL/kg; in data set [1] (setting [5]), 41 mL/kg. The results for the “Excretion of electrolyte: K^+” value in data set [1] (setting [3]) and in data set [1] (setting [6]) were 227 μval/kg and 527 μval/kg, respectively. Further, the “Excretion of electrolyte: Cl^-” value in data set [1] (setting [4]) was 1,600 μval/kg; in data set [1] (setting [7]) it was 2,760 μval/kg. Besides, in “in vivo”, the LD50 at 72 h was over 2150 mg/kg. Besides, in the data set “in vivo”, the selectivity ratio is over 10000.
`NS(=O)(=O)c1cc(C(=O)O)c(NCc2ccco2)cc1Cl` [Furosemid, 4-chloro-N-(2-furylmethyl)-5-sulfamylanthranilic acid, reference compound]: the “Na^+/K^+ quotient” value in data set [1] (2 hours, doses as E1) is 3.1.
